Laboratory results reported in patent US8614327B2 (Vertex Pharmaceuticals Incorporated, priority 2004, dated 2013).

Biological target: T1, ΔF508-CFTR (Homo sapiens, UniProt P13569, DEL508-508)
T1 construct: expressed in transfected cells
Assay: Membrane potential optical (FRET/VIPR) assay, identification of potentiator compounds
Assay type: cell-based
Details: Table 3, assay not given; for % Activity: relative efficacy
Method in brief: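 NIH3T3 mouse fibroblasts stably expressing ΔF508-CFTR, temperature-corrected 24 h at 27° C., read on VIPR by FRET between CC2-DMPE and DiSBAC2(3). Potentiators identified in a double-addition format, first adding chloride-free (gluconate) medium with or without compound.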

T1 sequence (P13569 with tags, fused parts or gaps DEL508-508): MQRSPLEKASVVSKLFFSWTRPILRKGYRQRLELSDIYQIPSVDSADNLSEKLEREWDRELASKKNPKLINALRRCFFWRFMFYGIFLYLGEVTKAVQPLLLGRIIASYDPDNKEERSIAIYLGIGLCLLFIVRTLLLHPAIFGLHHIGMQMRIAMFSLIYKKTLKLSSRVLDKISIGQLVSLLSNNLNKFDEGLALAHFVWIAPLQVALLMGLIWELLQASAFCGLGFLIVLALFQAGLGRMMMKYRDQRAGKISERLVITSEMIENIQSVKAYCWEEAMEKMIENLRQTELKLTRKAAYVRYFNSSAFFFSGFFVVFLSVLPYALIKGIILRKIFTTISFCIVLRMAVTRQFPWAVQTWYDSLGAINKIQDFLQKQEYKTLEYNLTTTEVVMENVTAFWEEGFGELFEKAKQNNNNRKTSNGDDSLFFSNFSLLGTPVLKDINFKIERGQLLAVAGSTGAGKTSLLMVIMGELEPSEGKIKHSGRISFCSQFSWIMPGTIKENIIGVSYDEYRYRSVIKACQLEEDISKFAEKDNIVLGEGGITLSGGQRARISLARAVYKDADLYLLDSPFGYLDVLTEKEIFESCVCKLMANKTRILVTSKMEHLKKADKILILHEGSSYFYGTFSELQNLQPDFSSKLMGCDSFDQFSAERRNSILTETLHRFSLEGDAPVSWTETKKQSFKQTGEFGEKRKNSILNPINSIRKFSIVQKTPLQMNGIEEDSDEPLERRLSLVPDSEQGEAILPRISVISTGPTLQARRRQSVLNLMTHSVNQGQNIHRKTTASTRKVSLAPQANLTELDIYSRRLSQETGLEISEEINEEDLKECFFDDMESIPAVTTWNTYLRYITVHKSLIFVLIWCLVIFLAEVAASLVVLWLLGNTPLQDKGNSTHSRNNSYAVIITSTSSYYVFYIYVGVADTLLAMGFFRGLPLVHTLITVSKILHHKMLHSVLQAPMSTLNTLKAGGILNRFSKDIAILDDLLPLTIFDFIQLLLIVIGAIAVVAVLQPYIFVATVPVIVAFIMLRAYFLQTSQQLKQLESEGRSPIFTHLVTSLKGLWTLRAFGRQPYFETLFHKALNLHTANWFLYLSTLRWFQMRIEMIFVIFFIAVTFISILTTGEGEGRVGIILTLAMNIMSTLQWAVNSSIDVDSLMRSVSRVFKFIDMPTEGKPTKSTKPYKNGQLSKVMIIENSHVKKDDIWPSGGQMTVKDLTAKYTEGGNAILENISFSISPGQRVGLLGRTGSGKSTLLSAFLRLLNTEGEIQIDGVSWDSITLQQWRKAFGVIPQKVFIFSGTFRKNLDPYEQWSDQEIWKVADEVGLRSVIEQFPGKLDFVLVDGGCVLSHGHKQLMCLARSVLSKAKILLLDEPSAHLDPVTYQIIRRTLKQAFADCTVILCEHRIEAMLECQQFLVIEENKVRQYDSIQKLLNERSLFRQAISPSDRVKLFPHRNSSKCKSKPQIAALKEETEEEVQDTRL

EC50 [µM] | % Activity | Structure (SMILES)
< 10 | ++ (between 25% to 100%) | COc1ccc2[nH]cc(C(=O)Nc3cc(O)c(C(C)(C)C)cc3C(C)(C)C)c(=O)c2c1 [Compound 496, N-(5-hydroxy-2,4-ditert-butyl-phenyl)-6-methoxy-4-oxo-1H-quinoline-3-carboxamide]
< 10 | +++ (>100%) | CC(C)c1cc(C(F)(F)F)c(NC(=O)c2c[nH]c3ccccc3c2=O)cc1O [Compound 497, N-[5-hydroxy-4-isopropyl-2-(trifluoromethyl)phenyl]-4-oxo-1H-quinoline-3-carboxamide]
< 10 | ++ (between 25% to 100%) | CC(C)(C)c1cc2cc[nH]c2cc1NC(=O)c1c[nH]c2cccc(O)c2c1=O [Compound 500, 5-hydroxy-4-oxo-N-(5-tert-butyl-1H-indol-6-yl)-1H-quinoline-3-carboxamide]
< 10 | ++ (between 25% to 100%) | O=C(Nc1cc(O)c(C(F)(F)F)cc1F)c1c[nH]c2ccccc2c1=O [Compound 501, N-[2-fluoro-5-hydroxy-4-(trifluoromethyl)phenyl]-4-oxo-1H-quinoline-3-carboxamide]
< 10 | + (<25%) | CC(C)(C)c1cc(C(C)(C)C)c(NC(=O)c2c[nH]c3c(C#N)cccc3c2=O)cc1O [Compound 505, 8-cyano-N-(5-hydroxy-2,4-ditert-butyl-phenyl)-4-oxo-1H-quinoline-3-carboxamide]
< 10 | ++ (between 25% to 100%) | CCc1cc(C(C)(C)C)c(O)cc1NC(=O)c1c[nH]c2cccc(O)c2c1=O [Compound 507, N-(2-ethyl-5-hydroxy-4-tert-butyl-phenyl)-5-hydroxy-4-oxo-1H-quinoline-3-carboxamide]
– | ++ (between 25% to 100%) | CC(C)(C)c1c[nH]c2cc(NC(=O)c3c[nH]c4ccccc4c3=O)c(C(F)(F)F)cc12 [Compound 508, 4-oxo-N-[3-tert-butyl-5-(trifluoromethyl)-1H-indol-6-yl]-1H-quinoline-3-carboxamide]
< 10 | ++ (between 25% to 100%) | CC(C)(C)c1cc(C(F)(F)F)c(NC(=O)c2c[nH]c3ccc(F)cc3c2=O)cc1O [Compound 509, 6-fluoro-N-[5-hydroxy-4-tert-butyl-2-(trifluoromethyl)phenyl]-4-oxo-1H-quinoline-3-carboxamide]
– | + (<25%) | CC(C)(C)c1cc(C(C)(C)C)c(NC(=O)c2c[nH]c3ccc(C(F)(F)F)cc3c2=O)cc1O [Compound 515, N-(5-hydroxy-2,4-ditert-butyl-phenyl)-4-oxo-6-(trifluoromethyl)-1H-quinoline-3-carboxamide]
< 10 | ++ (between 25% to 100%) | Cc1cc(C(C)(C)C)c(O)cc1NC(=O)c1c[nH]c2ccccc2c1=O [Compound 518, N-(5-hydroxy-2-methyl-4-tert-butyl-phenyl)-4-oxo-1H-quinoline-3-carboxamide]
< 10 | ++ (between 25% to 100%) | CC(C)(C)c1cc(F)c(NC(=O)c2c[nH]c3c(C#N)cccc3c2=O)cc1O [Compound 519, 8-cyano-N-(2-fluoro-5-hydroxy-4-tert-butyl-phenyl)-4-oxo-1H-quinoline-3-carboxamide]

Further lines, the compound ahead of its results:

Structure (SMILES) | EC50 [µM] | % Activity
Cc1cccc2[nH]cc(C(=O)Nc3cc(O)c(C4(C)CCCCC4)cc3F)c(=O)c12 [Compound 498, N-[2-fluoro-5-hydroxy-4-(1-methylcyclohexyl)-phenyl]-5-methyl-4-oxo-1H-quinoline-3-carboxamide] | < 10 | ++ (between 25% to 100%)
Cc1ccc2c(=O)c(C(=O)Nc3cc(O)c(C4(C)CCCCC4)cc3F)c[nH]c2c1 [Compound 499, N-[2-fluoro-5-hydroxy-4-(1-methylcyclohexyl)-phenyl]-7-methyl-4-oxo-1H-quinoline-3-carboxamide] | < 10 | ++ (between 25% to 100%)
COc1cc(NC(=O)c2c[nH]c3cccc(O)c3c2=O)cc(C(F)(F)F)c1 [Compound 502, 5-hydroxy-N-[3-methoxy-5-(trifluoromethyl)phenyl]-4-oxo-1H-quinoline-3-carboxamide] | < 10 | ++ (between 25% to 100%)
Cc1ccc2[nH]cc(C(=O)Nc3ccc(N4CCCC4C)cc3C(F)(F)F)c(=O)c2c1 (stereo not shown) [Compound 503, 6-methyl-N-[4-(2-methylpyrrolidin-1-yl)-2-(trifluoromethyl)phenyl]-4-oxo-1H-quinoline-3-carboxamide] | < 10 | ++ (between 25% to 100%)
COc1ccc2[nH]cc(C(=O)Nc3ccc(N4CCC(C)(C)C4)cc3C(F)(F)F)c(=O)c2c1 [Compound 504, N-[4-(3,3-dimethylpyrrolidin-1-yl)-2-(trifluoromethyl)phenyl]-6-methoxy-4-oxo-1H-quinoline-3-carboxamide] | < 10 | ++ (between 25% to 100%)
O=C(Nc1ccc(C(F)(F)F)c(O)c1)c1c[nH]c2ccccc2c1=O [Compound 506, N-[3-hydroxy-4-(trifluoromethyl)phenyl]-4-oxo-1H-quinoline-3-carboxamide] | < 10 | ++ (between 25% to 100%)
CC(C)(C)c1ccc(NC(=O)c2c[nH]c3ccccc3c2=O)cc1N1CCCCC1 [Compound 510, 4-oxo-N-[3-(1-piperidyl)-4-tert-butyl-phenyl]-1H-quinoline-3-carboxamide] | < 10 | ++ (between 25% to 100%)
Cc1cccc2[nH]cc(C(=O)Nc3ccc(N4CCC[C@@H]4C)cc3C(F)(F)F)c(=O)c12 [Compound 511, (S)-5-methyl-N-(4-(2-methylpyrrolidin-1-yl)-2-(trifluoromethyl)phenyl)-4-oxo-1,4-dihydroquinoline-3-carboxamide] | < 10 | ++ (between 25% to 100%)
O=C(Nc1cc(O)c(C2CCCC2)cc1C#CCO)c1c[nH]c2ccccc2c1=O [Compound 512, N-[4-cyclopentyl-5-hydroxy-2-(3-hydroxyprop-1-ynyl)phenyl]-4-oxo-1H-quinoline-3-carboxamide] | < 10 | ++ (between 25% to 100%)
CN(C)[C@H]1CCN(c2ccc(NC(=O)c3c[nH]c4ccccc4c3=O)c(C(F)(F)F)c2)C1 [Compound 513, (S)-N-(4-(3-(dimethylamino)pyrrolidin-1-yl)-2-(trifluoromethyl)phenyl)-4-oxo-1,4-dihydroquinoline-3-carboxamide] | < 10 | ++ (between 25% to 100%)
O=C(Nc1ccc(C(F)(F)F)cc1N1CCCCC1)c1c[nH]c2ccccc2c1=O [Compound 514, 4-oxo-N-[2-(1-piperidyl)-4-(trifluoromethyl)phenyl]-1H-quinoline-3-carboxamide] | < 10 | ++ (between 25% to 100%)
Cc1cccc2[nH]cc(C(=O)Nc3ccc(N4[C@@H](C)CC[C@@H]4C)cc3C(F)(F)F)c(=O)c12 [Compound 516, N-(4-((2S,5S)-2,5-dimethylpyrrolidin-1-yl)-2-(trifluoromethyl)phenyl)-5-methyl-4-oxo-1,4-dihydroquinoline-3-carboxamide] | < 10 | ++ (between 25% to 100%)
CCOc1cccc2c(=O)c(C(=O)Nc3ccc(C(C)C)cc3C(F)(F)F)c[nH]c12 [Compound 517, 8-ethoxy-N-[4-isopropyl-2-(trifluoromethyl)phenyl]-4-oxo-1H-quinoline-3-carboxamide] | < 10 | + (<25%)
